Assay results taken from ChEMBL document CHEMBL1201862, “PubChem BioAssay data set” (2004).
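How tested: cells in 96-well plates exposed to compound for 48 hours at five concentrations. At the GI50, growth is halved.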 Calls of active or inactive are those of the source. Rule as the data show it: active = GI50 up to about 1.1 µM and inactive = higher.

Key:
Assay in all cases: NCI anticancer screen, dose series, 48 h
[1] = test system: DLD-1
[2] = test system: DMS-273
[3] = test system: HOP-18
[4] = test system: SNB-78
[5] = test system: DMS-114
[6] = test system: M19-MEL
[7] = test system: XF498
[8] = test system: LXFL 529
[9] = test system: RXF 631

Measured: GI50

NN
inactive: [1] 296 µM | [2] 132 µM | [3] 324 µM | [4] 1190 µM

CC(C)=CC1C(C(=O)O)C1(C)C (stereo not given) [CHRYSANTHEMIC ACID]
inactive: [1] > 750 µM | [5] > 750 µM | [2] > 750 µM | [3] 197 µM | [6] > 750 µM | [7] 50.6 µM

Brc1ccc2[nH]c3c(C4=NCCC4)nccc3c2c1
inactive: [1] 15.5 µM | [5] 14.5 µM | [2] 14.4 µM | [3] 10.2 µM | [6] 26.9 µM | [4] > 100 µM | [7] > 39.5 µM

CNC(=O)OCc1c(CO)nc(SC)n1C
inactive: [1] > 100 µM | [5] > 100 µM | [2] > 100 µM | [3] > 100 µM | [6] > 100 µM | [7] > 100 µM

O=[N+]([O-])c1ccc(NC2OCC(O)C(O)C2O)cc1 (stereo not given)
inactive: [1] > 100 µM | [5] > 100 µM | [2] > 100 µM | [8] > 100 µM | [9] > 100 µM | [4] > 100 µM | [7] > 100 µM
